Assay results taken from a melting point compilation (Tetko et al.; mined from patent text by program, amines drawn as free bases though some values may be those of a salt).

melting point | Compound
56 to 58 °C | CCCCCCCCCCCCCCCCCC(=O)NCCOC(=O)C1=CC(C(C)(C)C)C(O)(C(C)(C)C)C=C1 (centres undefined)
52 to 53.5 °C | CCCCCCCCCc1ccc(C(=O)CC(=O)C(=O)OC)cc1
116 to 117 °C | CN(C)C(=O)c1ccc([N+](=O)[O-])cc1Cl
72 to 73.5 °C | Cc1ccc(N=CN(C)SN(C)c2ccccc2)c(C)c1
85 to 90 °C | CCCCCCOc1cccc(C[C@H](NC(=O)c2coc(NS(C)(=O)=O)n2)[C@H](O)CNCc2cccc(CC)c2)c1
236 to 238 °C | CN(C)Cc1cnc2cc(NC(=O)c3ccc(-c4ccc(Cl)cc4)cc3)ccc2c1
346 to 348 °C | Cc1c([N+](=O)[O-])c([N+](=O)[O-])c(Cl)c2c1=NC(=O)C(=O)N=2
136 to 138 °C | Cc1cn(-c2ccc([N+](=O)[O-])c(C)c2)c(C)n1
186 to 188 °C | CCOCc1nc2c(N)nc3c(c2n1CC1(OCCS(C)(=O)=O)CCC1)CCCC3
116 to 119 °C | CSc1c(S(=O)(=O)NC(C)(C)C)ccn1C
321 °C | COc1ccc(-c2ccc3cc(C(=O)O)ccc3c2)cc1C12CC3CC(CC(C3)C1)C2
128 to 130 °C | Cc1cccc(C)c1C1CCN(Cc2cc3ccccc3[nH]2)CC1
89 to 93 °C | CCCCCCCCCCCCCCOc1ccc(N(CC(=O)O)CC(=O)O)cc1OCCCCCCCCCCCCCC
209 to 212 °C | NC(=NO)c1ncn2c1N1CCN=C1c1ccccc1-2
200 to 202 °C | CCCCc1cc(NCc2ccc(-c3ccccc3C#N)cc2)n2nccc2n1
187 to 188 °C | Nc1ncnc2c1c(-c1ccc(Oc3ccccc3)cc1)nn2C1CCOCC1
107 to 108 °C | CCCCCC(=O)NS(=O)(=O)CCc1cc(OC(C)C)nn1Cc1ccc(Cl)cc1Cl
194 to 198 °C | CC(=O)Oc1ccc2c3c(cc(Cl)c2c1)-c1cc(F)c(OC(C)=O)cc1CO3
191 to 196 °C | CCNC(=S)NC1=Nc2ccccc2CS1
252 to 254 °C | Cc1cc2c(c(C3=NNC(=O)CC3C)c1)OCC(=O)N2 (centres undefined)
206 to 207 °C | Fc1cc2c(cc1F)CC(n1cc[nH]c1=S)CC2 (centres undefined)
260 to 262 °C | C[C@]1(N2C(=O)c3ccc(CNC(=O)c4ccc(Br)cn4)cc3C2=O)CCC(=O)NC1=O
159 to 160 °C | O=C(Nc1cccc(-c2ccnc3c(C(=O)c4cccs4)cnn23)c1)c1c(F)cccc1F
205 to 206 °C | CN1C(=O)C(NC(=O)OC(C)(C)C)CC(=O)c2ccccc21 (centres undefined)

melting point | Compound
185 to 186 °C | COc1ccc2c(c1)CCC(=O)NC2c1ccccc1 (centres undefined)
155 to 157 °C | CC(=O)Cc1cccc(S(N)(=O)=O)c1
190 to 194 °C | CN1C(=O)CCCc2cc(Nc3ncc(Cl)c(Nc4ccccc4C(=O)NCCO)n3)ccc21
130 to 132 °C | Clc1ccnc2cc3c(cc12)OCO3
160 to 162 °C | Cc1cc(=O)c(C(=O)OC2CCCCC2)nn1-c1ccc(Cl)cc1
152 to 154 °C | O=C(NC1=NN(c2ccccc2)C(c2ccccc2)C1)C(F)(F)F (centres undefined)
68 to 72 °C | O=C(Nc1ccc2[nH]ccc2c1)C(=O)N1CCC(Cc2ccccc2)CC1
231 to 233 °C | CC(C)(C)c1cc(CCN=C(O)c2cc(C(O)=NCCc3cc(C(C)(C)C)c(O)c(C(C)(C)C)c3)c(C(=O)O)cc2C(=O)O)cc(C(C)(C)C)c1O
282 to 283 °C | O=C(NCc1ccc(Cl)cc1)c1cnc2ccc(Br)cc2c1O
99 to 107 °C | c1ccc(C2OC3(CCNCC3)c3ccccc32)cc1 (centres undefined)
120 °C | CC1C(=O)N(CCO)C(=S)N1c1ccc(Oc2ccccc2)cc1 (centres undefined)
193 to 194 °C | CN1C(=O)Cn2c(CCl)nnc2-c2cc(Cl)ccc21
118 to 124 °C | CCCN(Cc1ccc(-c2ccccc2-c2nc(=O)s[nH]2)cc1)c1nc2ccccc2cc1C(=O)O
55 to 64 °C | C[C@@H]1[C@@H](NC(=O)OCc2ccccc2)CN1S(=O)(=O)O
57.5 °C | CC(C)(C)c1cc(SCCSCCC(=O)O)cc(C(C)(C)C)c1O
184 to 186 °C | CC(C)(O)CNc1c([N+](=O)[O-])cnc2cccnc12
132 to 133 °C | O=C1NCCc2c(OCCCCl)cccc21
170 to 174 °C | NS(=O)(=O)c1cc(CCNC(=O)/C=C/c2cccs2)ccc1OCCc1ccccc1
140 to 142 °C | O=C(O)c1c(OCc2ccccc2)c2ccccc2n1-c1ccccc1
103 to 104 °C | CC(C)(C)C(=O)OCn1c(-c2cnn(-c3c(Cl)cc(C(F)(F)F)cc3Cl)n2)nc(C#N)c1C#N
255 to 256 °C | CCOCc1nc2nc(O)cnc2c(=O)[nH]1
128 to 131 °C | CCC1CC(=S)N(c2ccc3oc(=O)c(N4C(=O)C(CC)CC4=S)cc3c2)C1=O (centres undefined)
122 to 123 °C | CCn1cc(-c2coc3ccc(-c4nnc(C)o4)cc23)cn1
90 °C | OCC(CO)Oc1ccc(I)cc1

melting point | Compound
157 to 159 °C | O=C(O)C1CCc2c(c3ccccc3n2C(=O)C2CCCCC2)C1 (centres undefined)
62 to 63 °C | Cc1sc(CCc2ccc(CO)cc2)nc1-c1ccccc1
135 to 136 °C | COc1cc2c(c3c1OC(C)(C)C3)C(Nc1ccccc1)=NC(C)(C)C2
114 to 116 °C | O=C1N(Cc2cc(-c3ccc(Cl)cc3)oc2C(F)(F)F)c2ccccc2C12COc1cc3c(cc12)OCO3 (centres undefined)
88.6 to 89.8 °C | Oc1ccnc(OC(F)F)c1
70 °C | O=S(=O)(CC=C1CCCCC1)c1ccccc1
178 to 180 °C | CCOC(=O)c1cc(-n2c(=O)[nH]c3c(c2=O)CCC3)ccc1Cl
244 °C | CSc1nc(=O)[nH]c(C)c1Br
206 to 209 °C | CC(C)(O/N=C(\C(=O)N[C@@H]1C(=O)N[C@@H]1COC(=O)NC(=O)CCl)c1csc(NC(=O)CCl)n1)C(=O)OCc1ccc([N+](=O)[O-])cc1 (relative stereo)
204 °C | CC(C)n1cc(-c2nc(C#N)c(N)nc2-c2ccccc2)ccc1=O
105 °C | COc1[nH]c(C)cc1C#N
170 to 172 °C | O=C(O)CCCOc1ccc(C23CC4CC(CC(C4)C2)C3)cc1
116 to 117 °C | Cc1ccccc1Oc1cccc(CC(=O)O)c1O
248 °C | CCOC(=O)C1=C(N)NC2=C(C(=O)CCC2)C1c1ccccc1-c1ccccc1 (centres undefined)
46 to 47 °C | CC(C)(Cc1ccc(Cl)cc1)C(O)(COc1ccc(Cl)cc1)c1cccnc1 (centres undefined)
132 °C | COc1ccc(-c2cccc(OC3SCC(OC(C)=O)C(OC(C)=O)C3OC(C)=O)c2)cn1 (centres undefined)
137 to 138 °C | CC(C)n1nc(-c2ccc(OCC(N)=O)nc2-c2ccccc2)ccc1=O
88 to 90 °C | CC1(C)Oc2cccc(O)c2O1
264 to 265 °C | COc1ccc(C(=O)NCc2ccccc2)c2c1oc1ccc(NC(C)=O)cc12
187 °C | COCCOCOc1c(C(C)(C)C)cc(C2=NC(=S)N=N2)cc1C(C)(C)C
252 to 254 °C | N#Cc1cccc2c1S(=O)(=O)c1ccccc1C2=O
128 °C | COC(=O)c1ccc(C=O)c2ncccc12
111 to 113 °C | CCOC(=O)C1=C(COCc2nc(C(=O)OCC)cs2)NC(C)=C(C(=O)OC)C1c1ccccc1Cl (centres undefined)
132 °C | c1ccc(C(c2ccccc2)N2CCN(CCCn3cnc4ccccc43)CC2)cc1

melting point | Compound
143 to 145 °C | CCc1cc(C(F)(C(F)(F)F)C(F)(F)F)cc(C)c1NC(=O)c1cccc(N)c1
194 to 196 °C | CN(C)c1cc2c(cc1-c1ccc3cc(C=C4SC(=S)N(CC(=O)O)C4=O)ccc3c1)C(C)(C)CCC2(C)C
138 °C | CCCc1c(CSc2nnc(SCc3ccc(OC(C)C(=O)O)cc3)s2)ccc(C(C)=O)c1O (centres undefined)
130 °C | CCOC(=O)c1cnn2c(C(F)(F)F)cc(-c3ccc(C(F)(F)F)cc3)cc12
127 to 129 °C | COc1cccc(C(=O)Nc2cnn(Cc3c(C)noc3C)c2)c1
117 to 120 °C | O=C(O)CN1Cc2ccccc2CC(NC(=O)OCC2c3ccccc3-c3ccccc32)C1=O (centres undefined)
208 to 213 °C | CCN1C(=O)C(C(=O)Nc2cccc(C(=O)Nc3ccccc3)c2)c2cc(C(=O)C3CCCC3)ccc21 (centres undefined)
74.5 to 76 °C | CCCOC(=O)c1cc(OC)c(OC)c(OCC)c1-c1c(C(=O)OC)cc(OC)c2c1OCO2
105 to 106 °C | C=CCN1C(=O)c2cscc2Nc2ccccc21
107 to 108 °C | CCOC(=O)c1c(O)c(Br)c(Br)n1Cc1ccccc1
187 to 190 °C | N#Cc1ccc2[nH]cc([C@H]3CC[C@@H](N4CC(Oc5cccc(F)c5)C4)CC3)c2c1
80 to 82 °C | CCCCCCCCCCOc1ccc(-c2ccc(C#CCCC(C)OC(C)=O)cc2)cc1 (centres undefined)
224 to 228 °C | COC1(c2cc(OCc3ccc4c(c3)OCCC4=NO)nc(N)n2)CCOCC1
228 to 230 °C | O=c1[nH]c2sccc2c(=O)n1CCN1CCN(c2ccccc2)CC1
140 to 141 °C | CCn1nnn(CCN2CCC(COC)(N(OCc3ccccc3)C(C)=O)CC2)c1=O
141 °C | O=[N+]([O-])c1nccn1C1CCCCC1O (centres undefined)
> 300 °C | CNc1nc(C2C(=O)Nc3ccc(C(F)(F)F)cc32)c2cn(C3CCCC3)nc2n1 (centres undefined)
116 to 118 °C | Nc1cccc(NC(=O)NCCCOc2cccc(CN3CCCCC3)c2)c1
218 to 222 °C | CN(CCOCC(=O)OC(C)(C)C)C(=O)c1c(-c2ccc(C(C)(C)C)cc2)n(C)n(-c2ccc(C#N)cc2)c1=O
64 to 66 °C | Oc1ccc(-c2nnc(CSCCOc3ccccc3)n2Cc2ccccc2)cc1
147 to 148 °C | COc1cc(C=Cc2ccccc2)c(C#N)c(OC)c1

Compound | melting point
OC(COc1ccccc1Br)C(Cl)(Cl)Cl (centres undefined) | 88 to 90 °C
C#CCN(C(C)=O)c1cccc(-c2ccnc3c(C#N)cnn23)c1 | 193 to 195 °C
CCNC(=O)c1ccc(N2CCNCC2)c(F)c1 | 142 to 145 °C
CCS(=O)(=O)Nc1ccc(OC(=O)NC)cc1C | 146 to 148 °C
O=C(Cl)c1cc([N+](=O)[O-])c(Cl)c([N+](=O)[O-])c1 | 55 to 57 °C
N=C(CF)Nc1cccc(C(N)=O)c1 | 219 to 220 °C
